In paper PMC3917282, “Alkaloids from the Mangrove-Derived Actinomycete Jishengella endophytica 161111” (Marine Drugs, 2014):
Converted amounts (≈) assume the structure as drawn. Like-named read-outs stand apart in the source and are kept apart here.

Assays:
[1] = tested on: influenza virus (A/Puerto Rico/8/34 (H1N1), PR/8); assay: organism not typed; format: cell-based; settings: for IC50: read-out: IC50 against H1N1 (CPE inhibition); for selectivity index (SI): H1N1 IC50 and MDCK CC50
in vitro = settings: dog
[2] = MDCK cells infected with A/Puerto Rico/8/34 (H1N1), 48 h post-infection, crystal violet staining

| Molecule | IC50 [1, 2] [µg/mL] | also measured |
| --- | --- | --- |
| OC[C@H](O)[C@@H](O)Cc1cncc(-c2ccco2)n1 [Compound 1, 2-(furan-2-yl)-6-(2S,3S,4-trihydroxybutyl)pyrazine] | > 50 |  |
| OC[C@H](O)[C@@H](O)Cc1cnc(-c2ccco2)cn1 [Compound 2, 2-(furan-2-yl)-5-(2S,3S,4-trihydroxybutyl)pyrazine] | > 50 |  |
| CC(C)C[C@H]1C(=O)OCc2ccc(C=O)n21 [Compound 3, (S)-4-isobutyl-3-oxo-3,4-dihydro-1H-pyrrolo[2,1-c][1,4]oxazine-6-carbaldehyde] | > 50 |  |
| CC(C)[C@H]1C(=O)OCc2ccc(C=O)n21 [Compound 4, (S)-4-isopropyl-3-oxo-3,4-dihydro-1H-pyrrolo[2,1-c][1,4]oxazine-6-carbaldehyde] | > 50 |  |
| O=Cc1ccc2n1[C@@H](Cc1ccccc1)C(=O)OC2 [Compound 6, (S)-4-benzyl-3-oxo-3,4-dihydro-1H-pyrrolo[2,1-c][1,4]oxazine-6-carbaldehyde] | > 50 |  |
| O=C(O)c1cc2c([nH]c3ccccc32)c(-c2ccc(CO)o2)n1 [Compound 7, flazin] | > 50 |  |
| OCc1ccc(-c2nccc3c2[nH]c2ccccc23)o1 [Compound 8, perlolyrine] | 38.3 (≈ 145 µM) | CC50 at 36 h (in vitro): 116 ± 12.1 µg/mL (≈ 440 µM); selectivity index (SI) [1]: 3.0 |
| Oc1nccc2c1[nH]c1ccccc12 [Compound 9, 1-hydroxy-β-carboline] | 25 (≈ 136 µM) | CC50 at 36 h (in vitro): 403 ± 31.4 µg/mL (≈ 2190 µM); selectivity index (SI) [1]: 16.1 |
| Cc1cc2nc3[nH]c(=O)[nH]c(=O)c3nc2cc1C [Compound 10, lumichrome] |  | IC50 ([1]; MDCK, 48 h): 39.7 µg/mL (≈ 164 µM) |
| O=Cc1c[nH]c2ccccc12 [Compound 11, 1H-indole-3-carboxaldehyde] | 45.9 (≈ 316 µM) | CC50 at 36 h (in vitro): 522 ± 24.5 µg/mL (≈ 3600 µM); selectivity index (SI) [1]: 11.4 |
| O=C(CO)c1c[nH]c2ccccc12 [Compound 12, 2-hydroxy-1-(1H-indol-3-yl)ethanone] | > 50 |  |
| COCc1ccc(C=O)[nH]1 [Compound 13, 5-(methoxymethyl)-1H-pyrrole-2-carbaldehyde] | > 50 |  |
| NC(=O)c1ncn([C@@H]2O[C@H](CO)[C@@H](O)[C@H]2O)n1 [Ribavirin, ribavirin, reference compound] | 23.1 (≈ 94.6 µM) | CC50 at 36 h (in vitro): 744 ± 18.5 µg/mL (≈ 3050 µM); selectivity index (SI) [1]: 32.2 |
| (4S)-4-(2-methylbutyl)-3-oxo-3,4-dihydro-1H-pyrrolo[2,1-c][1,4]oxazine-6-carbaldehyde [Compound 5] |  | IC50 against H1N1 (CPE inhibition) [1, 2]: > 50 µg/mL |
